Experimental data taken from ChEMBL document CHEMBL1135294, “Synthesis of a molecular mimic of the Glc1Man9 oligoside as potential inhibitor of calnexin binding to DeltaF508 CFTR protein” (Bioorg Med Chem Lett, 2002).

Target: T1, Calnexin (Homo sapiens, UniProt P27824)
T1 sequence (P27824 whole entry): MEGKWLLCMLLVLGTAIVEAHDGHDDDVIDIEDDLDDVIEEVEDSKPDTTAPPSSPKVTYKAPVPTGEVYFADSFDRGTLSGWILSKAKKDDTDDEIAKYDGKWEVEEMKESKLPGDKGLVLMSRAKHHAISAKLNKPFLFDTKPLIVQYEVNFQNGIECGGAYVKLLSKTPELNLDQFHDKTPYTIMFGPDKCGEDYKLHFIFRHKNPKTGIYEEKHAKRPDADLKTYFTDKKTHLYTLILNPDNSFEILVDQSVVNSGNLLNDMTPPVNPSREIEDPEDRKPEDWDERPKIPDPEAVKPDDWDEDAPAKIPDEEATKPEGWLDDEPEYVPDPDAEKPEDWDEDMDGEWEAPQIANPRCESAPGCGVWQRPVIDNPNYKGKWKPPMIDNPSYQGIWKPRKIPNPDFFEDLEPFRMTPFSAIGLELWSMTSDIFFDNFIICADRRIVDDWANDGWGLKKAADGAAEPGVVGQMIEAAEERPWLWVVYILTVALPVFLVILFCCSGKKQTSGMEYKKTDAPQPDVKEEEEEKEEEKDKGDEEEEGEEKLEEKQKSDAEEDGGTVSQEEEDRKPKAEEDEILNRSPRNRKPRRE
Assay: Compound was tested for its ability to inhibit binding of [3H]- Glc1Man9 GlcNAc2 to GST-fused calnexin immobilized on glutathione-agarose

Work on `O=C(NCC(CNC(=O)OCCNC(=O)O[C@H]1O[C@@H](CO)[C@@H](O)[C@H](O)[C@H]1O)OC(=O)NC(O)NC(=O)OCCOCCNC(=O)O[C@H]1C[C@@H](CO)[C@@H](O)[C@H](O[C@H]2O[C@@H](CO)[C@@H](O)[C@H](O)[C@@H]2O)[C@H]1O)OCCNC(=O)O[C@H]1O[C@@H](CO)[C@@H](O)[C@H](O)[C@H]1O` (stereo partly specified) yielded an IC50 of 300 µM.
